In EP3572468B1, “CYANINE DYES AND THEIR USAGE FOR IN VIVO STAINING OF MICROORGANISMS” (PHILIPPS-UNIVERSITÄT MARBURG, priority 2018, dated 2019):

Assays:
[1] = tested on: double-stranded calf thymus DNA (dsDNACT); assay: Fluorescence titration with dsDNACT, binding affinity by DynaFit; conditions: 1 µM dye in 10 mM Tris pH 7.6 and 50 mM KCI, 20°C, emission at 647 nm, 1:1 binding model, read-out: binding affinity (KD, apparent dissociation constant)
Procedure: (§1) Fluorescence measurements and tritations were performed on a Jasco FP-6500 spectrofluorometer equipped with a Thermo Haake WKL 26 water recirculator at 20°C. Unless otherwise noted, a 1400 µL fluorescence cuvette of HellmaAnalytics (104F-QS) was used and the measurements were performed with the following settings: increment: 1.0 nm; integration time: 0.2 s; speed: 500 nm/min; sensitivity: medium; excitation slit width: 3 nm; emission slit width: 3 nm; excitation wavelength 610 nm. The emission spectra were recorded from 625 to 750 nm at 20°C. From all spectra, the corresponding background signal was substracted. […] Table 1: Binding sites and sequences of DNA hairpins, which were used for fluorescence titrations experiments.
(§2) All fluorescence titrations followed the same procedure: to 1 mL of 1 µM solution of corresponding cyanine dye derivative in 10 mM Tris pH 7.6 and 50 mM KCI aliquots of a stock solution of the corresponding annealed DNA (dsDNAhAT and dsDNAhGC = 435 µM; dsDNACT = 0.65 mM) were successively added and the fluorescence spectra were recorded in a range from 625-750 nm after 1 min of each addition. […] The fluorescence emission plotted is the resulting mean of the three independent measurements. […]
(§3) All binding affinities were determined by fitting the obtained experimental data in the DynaFit 4.0 software. […]

[2] = target: dsDNAhAT (double-stranded DNA hairpin with the consensus sequence ATTA); assay: Fluorescence titration with hairpin dsDNAhAT, binding affinity by DynaFit; conditions: 1 µM dye in 10 mM Tris pH 7.6 and 50 mM KCI, 20°C, emission at 647 nm, 1:1 binding model, read-out: binding affinity (KD, apparent dissociation constant)
Procedure: as §1, §2, §3

[3] = tested on: dsDNACT; assay: UV-Vis absorbance titration with dsDNACT; assay type: binding, calf; conditions: addition of dsDNACT (< 2.5 eq of DNA); 12.3 µM dye in 10 mM Tris pH 7.6 and 50 mM KCI
Procedure: UV-Vis titration measurements were performed on a Jasco V-650 UV-Vis spectrophotometer equipped with a Jasco PAC-743 temperature controlled cell holder and a Julabo F250 cooling system to maintain the temperature constant at 20°C during the measurements. UV-Vis titration measurements were performed in a 500 µL quarz cuvette with a pathlength of 1 cm at 20°C. The absorbance spectra were recorded from 400 nm to 800 nm.
UV-Vis titration measurements were performed at a concentration of 12.3 µM of the dye in 10 mM Tris pH 7.6 and 50 mM KCI. Increasing aliquots of a 1.54 mM and 15.4 mM stock solutions of dsDNACT were successively added and the absorbance spectra were recorded in a range from 400-800 nm after 1 min of each addition. Three independent measurements were carried out. The presented spectra are the resulting mean of the three independent measurements.

[4] = tested on: primary human macrophages; assay: Uptake of 6-TramTO-3-labeled bacteria by macrophages (co-culture, FACS); assay type: cell-based; conditions: multiplicity of infection of 20
Procedure: For primary human macrophage cultures buffy coats from blood donations were loaded onto Lymphoprep™ gradient medium (Fresenius Kabi) followed by centrifugation. The peripheral blood mononuclear cell band was isolated from the gradient and monocytes were enriched using CD14 MACS beads (Miltenyi) according to the manufacturer's instructions. To differentiate monocytes into macrophages cells were cultured in 6-well plates (800.000 cells/mL) in 2 mL X-Vivo 15 medium (Lonza) supplemented with 5 % fetal bovine serum (Biochrom) and 15 ng/mL recombinant human GM-CSF (Preprotech). On day 7 macrophages were considered terminally differentiated and treated with stained bacteria. To this end bacteria stained as described above were sampled at an OD600 nm = 2.0 and washed five times with phosphate buffered saline (PBS). After the last wash bacteria were brought to an OD600 nm of 2.0 and 16 µL, equivalent to 16.000.000 bacteria were added to each well to achieve a multiplicity of infection of 20. Culture plates were then centrifuged for 10 min at 250 G and 37°C to establish physical contact between macrophages and bacteria. Subsequently, culture plates were transferred back into a 37°C incubator with CO2 atmosphere for the remainder of the stimulation period.
Bacteria and macrophages were washed with PBS prior to flow cytometry and analysed using a Guava easyCyte flow cytometer (Millipore). FCS3.0 files were analysed using Flowing Software (http://flowingsoftware.btk.fi/). Cells were first gated in the forward- / side-scatter plot to exclude debries, followed by quadrant gating in plots using the fluorescence channels as shown above. For discrimination of live/dead cell discrimination cells in PBS were supplemented with 0.4 µL/mL propidium-iodide (5 mg/ml solution) followed by 5 min incubation on ice. Propidium iodide signal was recorded in the yellow channel.

Compound: CC[n+]1ccc(/C=C/C=C2\Sc3ccccc3N2CCCCCCn2cc(CN)nn2)c2ccccc21.[I-] [6-TramTO-3, 4-((1E,3Z)-3-(3-(6-(4-(aminomethyl)-1H-1,2,3-triazol-1-yl)hexyl)benzo[d]thiazol-2(3H)-ylidene)prop-1-en-1-yl)-1-ethylquinolin-1-ium iodide]
- Kd [1]: 19.5 ± 2.6 µM
- Kd [2]: 0.114 ± 0.03 µM
- blue shift of the absorption maximum [3]: 102 nm
- red-shift of the macrophages (bacterial uptake) ([4]; macrophages exposed to 6-TramTO-3-labeled E. coli): ~ 26%
- macrophages that took up bacteria (red-shifted) ([4]; macrophages exposed to 6-TramTO-3-labeled antibiotic sensitive Klebsiella strain): ~ 0.2%
- macrophages that took up bacteria (red-shifted) ([4]; macrophages exposed to 6-TramTO-3-labeled antibiotic-resistant Klebsiella strain): ~ 4%
